Results from US20240217983A1, “GPR119 AGONISTS” (Kallyope, Inc., priority 2021, published 2024).
pEC50: −log10 of the molar value.

Target: T1, human GPR119 (hGPR119) (Homo sapiens, UniProt Q8TDV5)
T1 construct: expressed in transfected cells
T1 sequence (Q8TDV5 1-335): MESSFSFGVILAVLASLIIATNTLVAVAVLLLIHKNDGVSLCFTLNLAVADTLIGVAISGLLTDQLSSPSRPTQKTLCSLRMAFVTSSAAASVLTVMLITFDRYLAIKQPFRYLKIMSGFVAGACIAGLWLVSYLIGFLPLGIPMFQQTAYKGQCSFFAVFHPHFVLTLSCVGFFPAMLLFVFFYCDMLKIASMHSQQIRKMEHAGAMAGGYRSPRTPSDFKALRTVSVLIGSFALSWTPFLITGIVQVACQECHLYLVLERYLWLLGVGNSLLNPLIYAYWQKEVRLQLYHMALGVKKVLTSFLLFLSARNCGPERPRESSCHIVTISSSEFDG
Test: cAMP accumulation assay (Cisbio cAMP Gs dynamic HTRF kit) in CHO-K1 cells stably expressing human GPR119
Assay type: cell-based
Details: 4-parameter fit; for Emax: 1 h, % activity normalized to Max and Min controls; for pEC50: 60 minutes at 37° C.
Summary of the method: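 CHO-K1 cells stably expressing hGPR119, used as assay-ready frozen stocks at ~10,000 cells/well, exposed to compound dose-response in stimulation buffer with Tween 80 for 60 min at 37° C. cAMP read by HTRF (665/620 nm ratio), normalised to Max/Min controls; EC50 and Max activity from 4-parameter fit.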

Row | Structure (SMILES) | Emax [%] | pEC50
1 | O=C(Cc1ccc(OCCCC2CCN(c3ncc(Cl)cn3)CC2)cc1F)N1CCC2(CCCC2NC[C@H](O)[C@H](O)[C@H](O)CO)C1 (stereo partly drawn) [Example 76, 2-(4-(3-(1-(5-chloropyrimidin-2-yl)piperidin-4-yl)propoxy)-2-fluorophenyl)-1-(6-(((2S,3S,4R)-2,3,4,5-tetrahydroxypentyl)amino)-2-azaspiro[4.4]nonan-2-yl)ethan-1-one] | ≥ 130 | ≥ 7.00
2 | O=C(Cc1ccc(OCCCC2CCN(c3ncc(Cl)cn3)CC2)cc1F)N1CCC2(CC2NC[C@H](O)[C@H](O)[C@H](O)CO)C1 (stereo partly drawn) [Example 83, 2-(4-(3-(1-(5-chloropyrimidin-2-yl)piperidin-4-yl)propoxy)-2-fluorophenyl)-1-(1-(((2S,3S,4R)-2,3,4,5-tetrahydroxypentyl)amino)-5-azaspiro[2.4]heptan-5-yl)ethan-1-one] | 100 to 130 | ≥ 7.00
3 | O=C(Cc1ccc(OCCCC2CCN(c3ncc(Cl)cn3)CC2)cc1F)N1C[C@H]2CN(C[C@H](O)[C@@H](O)[C@H](O)[C@H](O)CO)C[C@H]2C1 [Example 45, 2-(4-(3-(1-(5-chloropyrimidin-2-yl)piperidin-4-yl)propoxy)-2-fluorophenyl)-1-((3aR,6aS)-5-((2S,3R,4R,5R)-2,3,4,5,6-pentahydroxyhexyl)hexahydropyrrolo[3,4-c]pyrrol-2(1H)-yl)ethan-1-one] | 100 to 130 | ≥ 7.00
4 | O=C(Cc1ccc(OCCCC2CCN(c3ncc(Cl)cn3)CC2)cc1F)N1CC[C@]2(CCC2NCC(O)C(O)C(O)CO)C1 (stereo in doubt) [Example 84, 2-(4-(3-(1-(5-chloropyrimidin-2-yl)piperidin-4-yl)propoxy)-2-fluorophenyl)-1-(1-(((2S,3S,4R)-2,3,4,5-tetrahydroxypentyl)amino)-6-azaspiro[3.4]octan-6-yl)ethan-1-one] | ≥ 130 | ≥ 7.00
5 | O=C(Cc1ccc(OCC2CC(C3CCN(c4ncc(Cl)cn4)CC3)C2)cc1F)N1CCN(C[C@H](O)[C@@H](O)[C@H](O)[C@H](O)CO)CC1 (stereo partly drawn) [Example 114, 2-(4-((3-(1-(5-chloropyrimidin-2-yl)piperidin-4-yl)cyclobutyl)methoxy)-2-fluorophenyl)-1-(4-((2S,3R,4R,5R)-2,3,4,5,6-pentahydroxyhexyl)piperazin-1-yl)ethan-1-one] | 100 to 130 | ≥ 7.00
6 | O=C(Cc1ccc(OCCCC2CCN(c3ncc(Cl)cn3)CC2)cc1F)N1CCC2(CC1)CN(C[C@H](O)[C@H](O)[C@H](O)CO)C2 [Example 69, 2-(4-(3-(1-(5-chloropyrimidin-2-yl)piperidin-4-yl)propoxy)-2-fluorophenyl)-1-(2-((2S,3S,4R)-2,3,4,5-tetrahydroxypentyl)-2,7-diazaspiro[3.5]nonan-7-yl)ethan-1-one] | 100 to 130 | 6.00 to 7.00
7 | O=C(Cc1c(F)cc(OCCCCC2CCN(c3ncc(Cl)cn3)CC2)cc1F)N1CCN(C[C@H](O)[C@@H](O)[C@H](O)[C@H](O)CO)CC1 [Example 87, 2-(4-(4-(1-(5-chloropyrimidin-2-yl)piperidin-4-yl)butoxy)-2,6-difluorophenyl)-1-(4-((2S,3R,4R,5R)-2,3,4,5,6-pentahydroxyhexyl)piperazin-1-yl)ethan-1-one] | ≥ 130 | ≥ 7.00
